Measured values from publication PMC11181322, “Copper(II) Complexes with Isomeric Morpholine-Substituted 2-Formylpyridine Thiosemicarbazone Hybrids as Potential Anticancer Drugs Inhibiting Both Ribonucleotide Reductase and Tubulin Polymerization: The Morpholine Position Matters” (Journal of Medicinal Chemistry, 2024).

How the values were obtained:
[1] = parameters: method as in PMID 32336116; details: copper(II) complexes of the named TSCs, measured under similar conditions ref 67; cited from earlier work
MES-SA/Dx5 cells [2] = experiment: Intracellular ROS generation, DCF-DA assay, MES-SA/Dx5; format: cell-based, human; details: 25 μM, 4 h treatment
Experimental: (§1) ROS accumulation was evaluated in both the MES-SA and MES-SA/Dx5 cell lines by using 2′,7′-dichlorodihydrofluorescein diacetate (H2DCF-DA) as a probe. This compound enters the cells by passive diffusion, and after oxidation, it is converted to the highly fluorescent 2′,7′-dichlorofluorescein (DCF), enabling the estimation of intracellular ROS levels. ROS generation was measured after a 4 h treatment with 25 μM H2L^6 or 6; tert-butylhydroperoxide (TBHP, 25 μM) was used as a positive control.
(§2) Figure 6 Intracellular ROS generation measured by the DCF-DA assay in MES-SA (filled bars) and MES-SA/Dx5 (lattice bars) cells, after a 4 h treatment with the indicated compounds at 25 μM: H2L^6 (gray), complex 6 (yellow), Triapine (green), and TBHP (brown). Values indicate fold change relative to the fluorescence of the cells treated with fluorescent probe alone (orange bars), following normalization to the initial fluorescence at the beginning of the incubation. Paired t test to the medium control was calculated; […]; **P < 0.01. Values were calculated from at least three independent experiments.
(§3) The human uterine sarcoma cell lines MES-SA and the doxorubicin selected MES-SA-Dx5 were obtained from ATCC (MES-SA: No. CRL-1976, MES-SA/Dx5: No. CRL-1977) and were used for the intracellular ROS generation studies. […]

MES-SA cells [3] = experiment: Fluorescent protein-based cytotoxicity assay, MES-SA; format: cell-based, human; details: Homo sapiens, MES-SA; 120 h; ± SD; n = 3
Excerpt: (§4) The cytotoxic activity of proligands H2L^3–H2L^6 and their copper(II) complexes 3–6 was investigated in the MES-SA (human uterine sarcoma) and in its MDR counterpart (MES-SA/Dx5) cell lines by a fluorescent protein-based assay.[73]
(§5) The human uterine sarcoma cell lines MES-SA and the doxorubicin selected MES-SA-Dx5 were obtained from ATCC (MES-SA: No. CRL-1976, MES-SA/Dx5: No. CRL-1977) and were used for the intracellular ROS generation studies. For cytotoxicity, we used the fluorescent cell lines MES-SA mCherry and MES-SA/Dx5 eGFP, which were created by lentiviral transductions of the respective genes.[73] The phenotype of the resistant cells was maintained by 500 nM doxorubicin treatment a week before use and was verified using cytotoxicity assays. Cells were cultivated at 37 °C, 5% CO2 in Dulbecco’s modified Eagle's Medium (DMEM, Sigma-Aldrich), supplemented with 10% fetal bovine serum, 5 mM glutamine, and 50 unit/mL penicillin and streptomycin (Thermo Fisher).
(§6) MES-SA mCherry and MES-SA/Dx5 eGFP cell suspensions were seeded after trypsinization at 2500 cells/20 μL density on 384-well plates, containing 20 μL of completed medium. The next day, serial dilution of the compounds was prepared and added in an additional 20 μL, with or without 0.4 μM Tariquidar. Liquid handling steps were performed by a Hamilton StarLet robot. […] The mean and standard deviation of the pIC50 values were calculated and converted to IC50 values.

MES-SA/Dx5 cells [4] = experiment: Fluorescent protein-based cytotoxicity assay, MES-SA/Dx5; format: cell-based, human
Excerpt: as §4, §5, §6

mR2 RNR protein = molecular target: T1, mR2 RNR protein (Mus musculus, UniProt P11157); parameters: method as in PMID 21955844; details: in 3 min ref 76; cited from earlier work
T1 construct: made in house
T1 sequence (P11157 1-390): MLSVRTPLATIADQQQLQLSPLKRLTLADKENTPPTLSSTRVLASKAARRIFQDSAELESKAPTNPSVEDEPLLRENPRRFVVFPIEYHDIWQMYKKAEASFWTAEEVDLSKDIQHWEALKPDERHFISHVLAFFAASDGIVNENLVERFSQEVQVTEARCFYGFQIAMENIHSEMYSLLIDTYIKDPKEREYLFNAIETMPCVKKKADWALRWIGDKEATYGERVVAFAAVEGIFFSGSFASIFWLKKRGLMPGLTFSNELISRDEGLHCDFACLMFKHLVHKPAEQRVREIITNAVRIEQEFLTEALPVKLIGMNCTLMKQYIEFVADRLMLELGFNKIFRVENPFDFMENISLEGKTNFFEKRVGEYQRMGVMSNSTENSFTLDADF

MES-SA cells [5] = experiment: dNTP pools in MES-SA cell extracts; format: cell-based, human; details: 24 h
Excerpt: RNR reduces NDPs to their corresponding deoxy derivatives (dNDPs), which are further converted into dNTPs.[77] Therefore, we investigated the effect of the most toxic proligand H2L^6 and its copper(II) complex 6 on cellular dNTP levels, using Triapine as a control. […] Triapine also elicits a dATP pool decrease while increasing the pools of the three other dNTP species. Decreasing the dATP pool to zero can give rise to the observed cytotoxic effect upon treatment with Triapine. Complex 6 seems to affect dNTP pools by a more complex mechanism, which is nevertheless consistent with R2 inhibition.[79]
Figure 8 Measurement of dNTP pools in MES-SA cell extracts following a 24 h treatment with proligand H2L^6, complex 6, or Triapine at the indicated concentrations. Three independent experiments were performed; error bars represent standard error; stars indicate significant changes compared to the respective control (Ctrl) at p < 0.05.
After a 24 h incubation with or without drugs, MES-SA cells were washed twice with PBS and trypsinized for 5 min. […] The pellet containing dNTPs was redissolved in 50 μL of RNase-free water and stored at −20 °C. dNTP-containing samples were measured by a nucleotide incorporation-based fluorescent method.[97] We used a long synthetic oligonucleotide (197 nt) as a template, which contains a dNTP-detection site, the sole complementary base to that of the dNTP to be quantified directly adjacent to the annealed primer. […] In addition to the limiting amount of dNTP to be quantified, the polymerization reaction mix contained the other three dNTPs in large excess. The double-stranded DNA product is detected by the EvaGreen Dye. The 2X master mix for the DNA synthesis reaction contained the following: 0.275 μM primer (Merck KGaA, Darmstadt, Germany), 0.25 μM template (IDT, Coralville, Iowa, USA), 50 μM dNTP mix (excluding the dNTP to be measured in the given experiment to limit its source to the sample), and 1.25 μM EvaGreen (Biotium). […] Fluorescence amplitude data were extracted from the Bio-Rad CFX Maestro Software and analyzed using Excel and Origin. […]

MES-SA cells [6] = experiment: Intracellular ROS generation, DCF-DA assay, MES-SA; format: cell-based, human; details: 25 μM, 4 h treatment
Experimental: as §1, §2, §3

NC(=S)NN=Cc1ncccc1N [Triapine, 3-aminopyridine-2-carboxaldehyde thiosemicarbazone, reference compound]
kobs, reduction by GSH [1]: 0.10 min^–1 | Intracellular ROS generation (MES-SA/Dx5 cells [2]): failed to induce ROS | IC50 (MES-SA cells [3]): 0.52 ± 0.1 µM | IC50 (MES-SA/Dx5 cells [4]; Homo sapiens, MES-SA/Dx5, 120 h, ± SD, n = 3): 2.8 ± 0.5 µM | SR, selectivity ratio IC50 (MES-SA)/IC50 (MES-SA/Dx5) (MES-SA/Dx5 cells [4]; in the absence of TQ): 0.18 | mR2 Y• reduced (mR2 RNR protein): 100% | dATP pool (MES-SA cells [5]): decrease | pools of the three other dNTP species (MES-SA cells [5]): increasing | Intracellular ROS generation (MES-SA cells [6]): failed to induce ROS
